According to patent publication US8470534B2, “Methods of predicting resistance or sensitivity to therapies for cancer” (priority 2006, dated 2013):

What was measured:
[1] = test system: MCF7 donor or siRb xenograft tumors; experiment: Nude mouse xenograft therapeutic study; format: in vivo, nude mice
Description: The xenograft model system is then utilized to test the response of RB-deficient tumors to CDDP therapy. Tumors are developed in the flanks of mice by injecting MCF7 donor or siRb cells into the flanks of mice and implanting a […] (E2) pellet into the back. When tumors reached 100-110 mm^3, mice received 5 mg/kg CDDP every 4 days for 5 courses.
To assess the role of RB in the therapeutic response of MCF7 cells in vivo, the xenograft model is again employed. Upon the attainment of tumors of approximately 100-120 mm^3, mice are deprived of estrogen and treated with Tam. […] (FIG. 4F). […] All tumors are weighed upon exclusion, and RB-deficient tumors are more than 3 times heavier than control tumors following Tam therapy (FIG. 4G).
Five- to 8-week-old female ovariectomized athymic nude mice are anesthetized, and an E2 pellet (1.7 mg/pellet, 90-day release) or placebo is surgically implanted in the back. Following implantation, 200 μl of a PBS- and phenol red-free Matrigel matrix basement membrane, solution (3:1) containing 2×10^6 cells is injected subcutaneously into the flank, or contralaterally where noted. Tumor volume is measured with calipers every 4 days using the equation V=0.52 (width)^2 ×(length). In the therapeutic studies, when tumor volume reaches 100-120 mm^3, animals are placed into 1 of 3 therapeutic groups (each group containing at least 6 animals): control animals retaining the estrogen pellet, antiestrogen-treated animals, or CDDP-treated animals. Animals in the antiestrogen treatment group are anesthetized, the estrogen pellet is surgically removed, and a Tam pellet (5 mg/pellet, 60-day release) implanted. The CDDP-treated animals receive 5 mg/kg CDDP injected i.p. on a q4dx5 schedule (every 4 days for 5 courses). All animals are injected i.p. with 150 mg/kg BrdU (Sigma-Aldrich) 1 hour prior to euthanization. Xenograft tumors are weighed and fixed in 10% neutral buffered formalin, paraffin embedded, and cut into 5-ÿm sections. For immunohistochemical staining, sections are deparaffinized in xylene and rehydrated through a graded series of ethanol/water solutions. A BrdU detection kit is utilized as recommended by the manufacturer. BrdU incorporation is scored in a blinded manner, and at least 500 cells per section are counted from several random fields.

[2] = test system: MCF7, T47D, and Zr-75-1 cells; experiment: BrdU incorporation (cell-cycle checkpoint) after CDDP treatment; format: cell-based, human
Description: The RB and p53 tumor suppressors are known to be critical for induction of DNA damage checkpoints, and therapies inducing DNA damage are used as an additional line of treatment for ER-positive breast cancers resistant to hormonal therapy. Therefore, the role of these tumor suppressors in the response to therapeutic doses of DNA-damaging agents is investigated. Wild-type MCF7, T47D, and Zr-75-1 cells are treated with 0, 8, or 16 μM CDDP and labeled with BRDU to determine the effect of the agent on cell-cycle progression. […] To specifically probe the impact of RB in the response to DNA damage, T47D and Zr-75-1 polyclonal donor and siRb88 cells are utilized. […] To confirm these findings, MCF7 donor 1 and siRb28 cells are treated with either CDDP as described above or with 0, 2.5, or 5 Gy ionizing radiation (IR). […] To determine the long-term effect of DNA damage therapy upon proliferation, cell growth assays are performed wherein the RB-proficient and deficient MCF7 clones are plated at equal density and treated with 2.5 or […].
(§1) RB target gene upregulation is a prognostic indicator in human breast cancers. RB performs a myriad of functions, the most well understood being repression of the E2F family of transcription factors. To determine the specific influence of the E2F axis on bypassing therapy, an activator E2F is overexpressed in wild-type MCF7 cells. Specifically, cells are infected either with an adenovirus encoding E2F3 (ad-E2F3) or a control virus (Ad-LacZ) and are harvested 3 days after infection for immunoblot analysis of levels of known RB-E2F targets (FIG. 5A). […] As expected, no changes are detected in RB levels, and CDK4 serves as a loading control. In order to assess the response to therapeutic intervention, 3 days after infection Ad-E2F3- or AdLacZ-infected MCF7 cells are separated into 2 major treatment groups: hormone therapy and DNA damage therapy. The estrogen ablation group is then cultured in the absence of estrogen and in the presence of Tam and ICI as described above. Alternatively, the cells in the DNA damage therapy group are treated with 16 μM CDDP for 18 hours prior to washing or treatment with 5 Gy IR. Cells from both therapy groups are BrdU labeled, and the replicative fraction of treated cells is determined with respect to untreated control cells (FIG. 5B).
The MCF7, T47D, and Zr-75-1 cell lines are obtained from ATCC and propagated in DMEM containing 10% FS supplemented with 100 U/ml penicillin/streptomycin and 2 mM L-glutamine at 37° C. in air containing 5% CO2. […] Cells are infected with Ad-lacZ at a multiplicity of infection of 50, at which 95% of cells are infected (as determined by plaque assay in 293 cells) or with 2.7×10^11 virus particles/ml of Ad-E2F3 and cultured for 3 days prior to use. […]

[3] = test system: MCF7, T47D, and Zr-75-1 cells; experiment: BrdU incorporation under hormone deprivation / antiestrogen (CDT, CDT/Tam, CDT/ICI); format: cell-based, human
Description: To understand the impact of RB deficiency on the response to hormone deprivation therapy, cells are cultured in CDT, CDT/Tam, or in the presence of pure antiestrogen, ICI182780 (CDT/ICI). Following treatment with these modalities, cells are labeled with BrdU to determine the influence of each agent on cell-cycle progression and the corresponding influence of RB knockdown on this response (FIG. 4B). These experiments are recapitulated in the polyclonal populations of T47D and Zr-75-1 donor and siRb88 cells (FIG. 4C). […] To elucidate the long-term growth effects of these therapies, cell proliferation assays are performed over 9 days. RB-proficient and -deficient MCF7 cells are seeded at equal densities and cultured in CDT/Tam (FIG. 4D). […] Similar results are evident in the same experiments with both T47D and Zr-75-1 RB-proficient and -deficient polyclonal pools (FIG. 4E).
as §1
To study the effect of estrogen depletion, cells are cultured for 72 hours in phenol red-free DMEM supplemented with 10% CDT serum with addition of 10^−9 M 4-HydroxyTam or 10^−6 M ICI where indicated. Cell growth assays are performed by trypsinizing cells and counting by trypan blue exclusion every 3 days.
Cells treated with IR are exposed to ^137Cs (dose rate: 0.67 Gy/min) at room temperature in tissue culture media. Culture with clinical grade CDDP for 18 hours is performed for all CDDP treatments. For all proliferation studies, cells are labeled with BrdU for 10 hours or 5 hours for LXSN/LXSN-p53dd infected cells, and BrdU immunofluorescence is performed as previously described. All BrdU results are expressed as a percentage of untreated control cells set to 100%, unless otherwise noted.

| Structure (SMILES) | tumor response during treatment, RB-deficient tumors ([1]; RB-deficient MCF7 tumors versus control tumors, 5 mg/kg CDDP every 4 days for 5 courses) | tumor response during treatment ([1]; RB-proficient and RB-deficient MCF7 tumors, 5 mg/kg CDDP i.p. every 4 days for 5 courses) | tumor weight upon excision, tumors lacking RB relative to control tumors ([1]; following CDDP therapy) | cell-cycle arrest (replicative fraction, BrdU) ([2]; Ad-E2F3-infected versus control infected MCF7 cells, 16 μM CDDP for 18 hours) | DNA damage checkpoint (BrdU labeling) ([2]; MCF7 siRb28 versus donor 1 cells, CDDP 0, 8, or 16 μM) | BrdU incorporation following DNA damage ([2]; RB-deficient (siRb88) T47D and Zr-75-1 cells, 0, 8, or 16 μM CDDP) | effect on cell-cycle progression (BrdU labeling) ([2]; wild-type RB-positive MCF7, T47D, Zr-75-1 cells, 0, 8, or 16 μM CDDP for 18 hours, BrdU 10 hours) | cell-cycle arrest (replicative fraction, BrdU) ([3]; Ad-E2F3-infected versus control infected MCF7 cells, absence of estrogen plus agent) | cell-cycle inhibition by the agent (BrdU labeling) ([3]; RB-depleted cells (MCF7 siRb28, T47D and Zr-75-1 siRb88), CDT serum plus agent, 3 days) | cell-cycle progression (BrdU labeling) ([3]; cells harboring functional RB (MCF7, T47D, Zr-75-1 donor), CDT serum plus agent, 3 days, 10^−9 M 4-HydroxyTam or 10^−6 M ICI) |
| --- | --- | --- | --- | --- | --- | --- | --- | --- | --- | --- |
| N.N.[Cl][Pt][Cl] [CDDP, cis-diamminedichloroplatinum II] | regressed more rapidly | both tumor types regressed | less than half as much as control tumors | significantly reduced levels of cell-cycle arrest | RB deficiency promotes bypass of the DNA damage checkpoints | continue to incorporate BrdU efficiently | dose-dependent cell-cycle checkpoint |  |  |  |
| C[C@]12CC[C@@H]3c4ccc(O)cc4C[C@@H](CCCCCCCCC[S+]([O-])CCCC(F)(F)C(F)(F)F)[C@H]3[C@@H]1CC[C@@H]2O (stereo partly shown) [ICI182780] |  |  |  |  |  |  |  | significantly reduced levels of cell-cycle arrest | significantly reduced | elicit cell-cycle inhibition |
